The text below walks through data of PMC3855619 (Biochemistry, 2013).

SMILES strings stand for the structures.

The target of this assay is GI 77862362; decaprenyl diphosphate synthase [Rhodobacter capsulatus] (Rhodobacter capsulatus, UniProt Q07D00). The assay can be described thus: product chain-length by TLC with […]IPP. The format is biochemical.
GI 77862362; decaprenyl diphosphate synthase [Rhodobacter capsulatus], sequence (Q07D00 1-333): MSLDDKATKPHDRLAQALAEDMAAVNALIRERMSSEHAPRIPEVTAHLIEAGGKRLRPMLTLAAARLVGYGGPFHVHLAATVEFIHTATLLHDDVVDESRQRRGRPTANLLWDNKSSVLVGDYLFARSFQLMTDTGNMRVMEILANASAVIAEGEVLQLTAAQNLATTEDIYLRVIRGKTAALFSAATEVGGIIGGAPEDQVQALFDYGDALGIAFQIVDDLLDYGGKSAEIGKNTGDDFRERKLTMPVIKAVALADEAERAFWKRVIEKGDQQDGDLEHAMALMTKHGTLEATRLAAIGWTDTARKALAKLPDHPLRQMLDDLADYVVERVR

As to `C=C(C)CCOP(=O)(O)OP(=O)(O)O` [IPP], the “product chain-length by TLC with [14C]IPP” value is “different ratios of IPP:DMAPP and IPP:FPP”.
